The numbers were not newly measured in patent US11077125B2, “Ophthalmic composition containing sulfasalazine and hyaluronic acid” (KUKJE PHARMA CO., LTD., priority 2016, dated 2021), which cites them from elsewhere.

In brackets after ≈: the same amount, converted by molar mass.

For the series the following is noted: in water.

As to `O=C(O)c1cc(/N=N/c2ccc(S(=O)(=O)Nc3ccccn3)cc2)ccc1O` [Sulfasalazine], the solubility (usually how much of the substance goes into solution per volume) is 0.0464 mg/mL (≈ 116 µM).
